Experimental data as given in US20200131227A1, “POLYPEPTIDE WITH TUMOUR BINDING ACTIVITY” (RUPRECHT-KARLS-UNIVERSITÄT HEIDELBERG, priority 2017, published 2020).
Where a SMILES comes first, the peptide text is derived from it. Bridges are numbered along the chain shown (N, C = ends). Roman numbers before positions name the chains, in order. Where no end group is shown, it is not given here. The star is where a group is joined. DOTA = O=C(O)CN1CCN(CC(=O)O)CCN(CC(=O)*)CCN(CC(=O)O)CC1

Key:
[1] = system: HNSCC tumor sections (HNO97 xenograft, HNO444, HNO399, HNO210); test: Histochemical peptide staining of HNSCC tumor cryosections; design: species or system human; conditions: biotinylated PEG(12)-peptide, 10^-5 M
Description: Staining with the biotinylated PEG(12)-SFITGv6 peptide was performed on acetone-fixed cryosections (5 μm) of tumor tissues after blocking of unspecific binding using the Avidin/Biotin Blocking Kit (SP-2001, Vector Laboratories). A stock solution of the lyophilized peptide was prepared by dilution in 5% aqueous DMSO. Slices were incubated overnight at 4° C. with 10^-5 M peptide concentration in antibody diluent (DAKO). Detection of bound peptide was carried out with the Vectastain Elite ABC Kit (PK-6100, Vector Laboratories) according to manufacturer's protocol. Peptide specificity was ensured by a scrambled (GRD) PEG(12)-SFITGv6 derivate, the somatostatin receptor ligand DOTATOC and negative controls (without peptide or primary antibody) Staining results were assessed by bright field microscopy (BX50) with the SC30 camera and the cell Sense software (all Olympus).
Immunohistochemical stainings were performed by use of the biotinylated PEG(12)-labled peptides (SFITGv6, SFLAP3) on 5 μm acetone-fixed tumor tissue cryosections. To prevent background staining we initially applied the Avidin/Biotin Blocking Kit (SP-2001, Vector Laboratories). The lyophilized peptides were diluted in 5% aqueous DMSO preparing a 1 mM Stock solution. The HNSCC cryosections were incubated with 10^−5 M peptide concentration in antibody diluent (DAKO) at 4° C. overnight. To detect bound peptide the Vectastain Elite ABC Kit (PK-6100, Vector Laboratories) was applied according to manufacturer's protocol. Peptide binding specificity was ensured by use of a peptide derivate (scrambled control) and negative controls (without peptide). Due to instability of the peptide binding staining results were assessed on the same day by bright field microscopy (BX50) with the SC30 camera and the cell Sense software (all Olympus).

HNO97 cells [2] = format: binding, human; conditions: 48 h
Description: (§1) For binding studies, 2.5×10^5 to 4×10^5 cells were seeded in 6-well plates and cultivated for 48 hours. Cells were incubated for 60 min with 1 mL serum-free medium containing the ^125I-labeled peptide (see above). For competition experiments, cells were simultaneously exposed to unlabeled (10^-4 M to 10^-10 M) and ^125I-labeled peptides. After three washing steps with PBS (pH 7.4) the cells were lysed with 0.5 mL of 0.3 M NaOH. Experiments concerning the internalization, kinetics and efflux were additionally performed with ^177Lu-DOTA-SFITGv6. To evaluate kinetics and efflux HNO97 cells were incubated for different time intervals (10 min to 480 min) and 60 min, respectively, with ^177Lu-DOTA-SFITGv6 and lysed as described. To continue with the efflux experiment radioactive medium was replaced by non-radioactive medium and cells were incubated again for 60 to 240 min before measuring radioactivity of the cell lysates and the medium. For internalization experiments the cells were exposed to ^177Lu-DOTA-SFITGv6 for different time intervals (10 to 240 min) at 37° C. and 4° C. After three washing steps with PBS the cells were incubated with 1 mL of glycine-HCl 50 mmol/L in PBS (pH 2.8) for 10 min at RT to remove the surface bound activity. Then, cells were washed with 3 mL of ice-cold PBS and lysed as described. Radioactivity was determined in a gamma counter and calculated as percentage of the applied dose per 1×10^6 cells. Experiments were performed three times, and three repetitions per independent experiment were acquired.

Capan-2 cells = test: In vitro binding, internalization and efflux on Capan-2 cells; format: cell-based, human
Description: For in vitro binding Studies, 4*10^5-6*10^5 cells were seeded in 6 well plates and cultivated for 24 to 48 hours. At the start of the experiment the medium was replaced with 1 ml serum free medium with a definite amount of radioactive labeled peptide per well. For normal binding assays the cells were incubated for 60 min at 37° C. and afterwards washed 3 times with PBS (pH 7.4). Cells were lysed with 2 times 0.5 ml of a 0.3 M NaOH +0.2% SDS lysis-buffer. Competition assays were performed with ^125I-labeled and unlabelled (10^−6 to 10^−11M) peptide and incubated at the same time for 60 min.
Cells were incubated for 10 to 240 min with ^177Lu-labelled peptide in internalization assays. After the washing steps, the cells were incubated with 1 ml glycine-HCl (1 M, pH 2.2) buffer for 10 min to remove surface bound peptide. Prior to the lyses the cells were washed again. Values are given as percentage of applied dose per 10^6 cells.
The efflux was tested with ^177Lu-labeled peptides. After 60 min incubation the radioactive medium was removed and 1 ml fresh serum-free medium was added. After additional incubation of 60, 120 or 240 min, cell bound activity was measured.

carcinoma cell lines = test: In vitro binding of radiolabeled peptides to several carcinoma cell lines; format: cell-based, human; conditions: HNO97, HNO399, HNO223, HNO210, HNO199; 60 min
Description: as §1
(§2) For the assessment of the peptide binding capacity in vitro, 2.5-4×10^5 cells were seeded into 6-well plates and cultivated for 48 h. ^125I-labeled peptide resuspended in 1 mL serum-free medium was added and incubated for either 10 min or 60 min with or without different concentrations of unlabeled peptide (10^−4-10^−11 M). Afterwards, cell monolayers were washed three times with 1 mL phosphate-buffered saline (pH 7.4) to remove unbound peptide and the cells were harvested with 1.4 mL lysis buffer (0.3 M NaOH). To evaluate kinetic properties the cells were exposed to ^177Lu-DOTA-labeled peptides for 10, 30, 60, 120, and 240 min, respectively, and lysed as described. For the efflux experiments the cells were incubated with ^177Lu-DOTA-labeled peptides for 60 min. Thereafter, radioactive medium was replaced by non-radioactive medium and cell monolayers were incubated for additional 60, 120, and 240 min and afterwards lysed as described earlier. The internalization was assessed after exposure of the cells to ^177Lu-DOTA-labeled peptides for 10, 30, 60, 120, and 240 min at 37° C. Unspecifically bound peptide was removed from the surface by incubation with 1 M glycine-HCl solution (pH 2.2) for 10 min. The monolayer cell was rinsed with PBS and cells were lysed as described before. Radioactivity was determined in a y-counter and calculated as percentage of the applied dose per 1×10^6 cells. Experiments were performed three times, and three repetitions per independent experiment were acquired.

HNO97 cells [3] = test: In vitro binding, kinetics, internalization and efflux on HNO97 cells; format: cell-based, human; conditions: continuously increasing, within 480 min
Description: as §1, §2

[4] = molecular target: T1, integrin αvβ6 (ITGαvβ6) as expressed on human carcinoma cell lines and tumor tissue sections (human, UniProt P06756 31-1048; P18564 22-788); test: unlabelled peptide competing with the 125I-labelled peptide on Capan-2 cells, 60 min
T1 construct: whole, on cells; also called ITGAVB6; ITGαvβ6-expressing HNO97 cells
T1 sequence (P06756 31-1048, chain 1 of 2): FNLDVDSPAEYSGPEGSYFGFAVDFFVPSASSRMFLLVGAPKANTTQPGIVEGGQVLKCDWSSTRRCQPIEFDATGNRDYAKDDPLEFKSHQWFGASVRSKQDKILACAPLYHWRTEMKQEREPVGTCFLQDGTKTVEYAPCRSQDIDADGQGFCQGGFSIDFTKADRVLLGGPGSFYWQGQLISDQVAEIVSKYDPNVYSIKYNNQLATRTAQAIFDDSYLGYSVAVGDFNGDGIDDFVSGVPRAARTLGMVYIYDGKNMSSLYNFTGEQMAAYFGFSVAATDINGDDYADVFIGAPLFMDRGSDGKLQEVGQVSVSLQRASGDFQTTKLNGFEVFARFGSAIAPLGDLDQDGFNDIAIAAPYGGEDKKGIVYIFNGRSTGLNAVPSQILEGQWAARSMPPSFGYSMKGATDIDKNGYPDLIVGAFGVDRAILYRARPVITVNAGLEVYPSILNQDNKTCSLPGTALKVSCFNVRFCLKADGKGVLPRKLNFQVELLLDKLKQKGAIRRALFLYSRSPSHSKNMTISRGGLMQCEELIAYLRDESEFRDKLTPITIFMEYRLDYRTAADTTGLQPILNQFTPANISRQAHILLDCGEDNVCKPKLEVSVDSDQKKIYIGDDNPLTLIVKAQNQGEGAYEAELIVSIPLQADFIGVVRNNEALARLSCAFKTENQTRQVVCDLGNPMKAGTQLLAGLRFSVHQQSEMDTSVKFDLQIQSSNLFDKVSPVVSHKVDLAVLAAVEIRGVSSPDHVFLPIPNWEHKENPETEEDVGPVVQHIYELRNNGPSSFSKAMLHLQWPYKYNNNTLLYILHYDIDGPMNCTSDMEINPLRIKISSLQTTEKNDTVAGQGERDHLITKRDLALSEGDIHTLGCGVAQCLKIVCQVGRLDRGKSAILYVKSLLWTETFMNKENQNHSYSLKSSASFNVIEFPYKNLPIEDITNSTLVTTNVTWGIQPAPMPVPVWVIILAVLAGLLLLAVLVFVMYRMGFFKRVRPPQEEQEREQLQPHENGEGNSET
T1 sequence (P18564 22-788, chain 2 of 2): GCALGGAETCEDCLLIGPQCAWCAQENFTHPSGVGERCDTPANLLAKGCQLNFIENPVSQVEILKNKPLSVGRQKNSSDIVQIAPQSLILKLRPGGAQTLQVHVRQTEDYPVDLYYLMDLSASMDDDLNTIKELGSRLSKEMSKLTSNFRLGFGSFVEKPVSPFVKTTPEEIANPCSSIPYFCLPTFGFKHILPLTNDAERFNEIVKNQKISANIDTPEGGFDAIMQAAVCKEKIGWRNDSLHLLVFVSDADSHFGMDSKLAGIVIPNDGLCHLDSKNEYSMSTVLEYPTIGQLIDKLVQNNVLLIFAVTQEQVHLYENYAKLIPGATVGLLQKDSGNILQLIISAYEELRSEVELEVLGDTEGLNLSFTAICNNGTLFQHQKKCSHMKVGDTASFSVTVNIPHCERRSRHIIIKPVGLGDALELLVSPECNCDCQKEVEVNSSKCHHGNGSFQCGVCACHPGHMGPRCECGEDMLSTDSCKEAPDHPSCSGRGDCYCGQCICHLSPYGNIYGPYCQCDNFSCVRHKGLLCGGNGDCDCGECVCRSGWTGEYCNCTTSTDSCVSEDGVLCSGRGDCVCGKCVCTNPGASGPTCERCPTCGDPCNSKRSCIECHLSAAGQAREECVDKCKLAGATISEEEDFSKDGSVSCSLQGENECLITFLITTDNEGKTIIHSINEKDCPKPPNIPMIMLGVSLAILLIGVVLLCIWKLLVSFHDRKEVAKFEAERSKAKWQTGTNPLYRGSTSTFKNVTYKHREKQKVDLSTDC

C[C@@H](O)[C@@H]1NC(=O)[C@H](CCCCN)NC(=O)[C@@H](Cc2c[nH]c3ccccc23)NC(=O)[C@H](Cc2ccc(O)cc2)NC(=O)[C@@H](NC(=O)[C@@H](Cc2ccccc2)NC(=O)CN2CCN(CC(=O)O)CCN(CC(=O)O)CCN(CC(=O)O)CC2)CSSC[C@@H](C(=O)N[C@H](CO)[C@@H](C)O)NC1=O [DOTATOC, DOTA(0)-Phe(1)-Tyr(3))octreotid, reference compound]
histochemical peptide staining result [1]: could not observe any specific binding

CC(C)C[C@H](NC(=O)[C@H](CC(=O)O)NC(=O)CNC(=O)[C@H](CCCNC(=N)N)NC(=O)[C@@H]1CCCN1C(=O)[C@@H](N)CO)C(=O)N[C@@H](C)C(=O)N[C@H](C(=O)N[C@@H](CC(C)C)C(=O)NCC(=O)N[C@@H](Cc1c[nH]cn1)C(=O)N[C@@H](CCCCN)C(=O)N[C@@H](Cc1ccc(O)cc1)C(N)=O)C(C)C [HBP-1, reference compound] (H-SPRGDLAVLGHKY-NH2; N-terminus and C-terminus assumed)
IC50 (HNO97 cells [2]): 45.1 nM

CSCC[C@@H]1NC(=O)[C@H](CCCCN)NC(=O)[C@H](CC(=O)O)NC(=O)CNC(=O)[C@H](CCCNC(=N)N)NC(=O)[C@H](Cc2ccccc2)NC(=O)[C@H]([C@@H](C)O)NC(=O)[C@@H](NC(=O)[C@H](CCCNC(=N)N)NC(=O)CN)CSSC[C@@H](C(=O)N[C@@H](Cc2ccc(O)cc2)C(=O)N2CCC[C@H]2C(=O)N[C@@H](CC(=O)O)C(=O)O)NC(=O)[C@H](CC(C)C)NC(=O)[C@H](CCC(N)=O)NC1=O [SFPF-10] (H-GRCTFRGDKMQLCYPD-OH; disulfide 3-13; N-terminus and C-terminus assumed)
IC50 (HNO97 cells [2]): 18 nM

H2N-G-R-C1-T-G-R-G-D-L-G-R-L-K-C2-Y-P-D-COOH (H-GRCTGRGDLGRLKCYPD-OH; disulfide 3-14; SMILES CC(C)C[C@@H]1NC(=O)[C@H](CC(=O)O)NC(=O)CNC(=O)[C@H](CCCNC(=N)N)NC(=O)CNC(=O)[C@H]([C@@H](C)O)NC(=O)[C@@H](NC(=O)[C@H](CCCNC(=N)N)NC(=O)CN)CSSC[C@@H](C(=O)N[C@@H](Cc2ccc(O)cc2)C(=O)N2CCC[C@H]2C(=O)N[C@@H](CC(=O)O)C(=O)O)NC(=O)[C@H](CCCCN)NC(=O)[C@H](CC(C)C)NC(=O)[C@H](CCCNC(=N)N)NC(=O)CNC1=O) [SFLAP3K]
cellular uptake of ^125I-labeled variant compared with SFLAP3 (Capan-2 cells; different pancreatic carcinoma cell lines (FIG. 25D)): increased cellular uptake

SFLAP1: SFTI derivate with grafted LAP1 octamer RRGDLAFI (GRCTRRGDLAFICYPD; disulfide 3-13 (inferred); also: 125I on the tyrosine in labelled form)
binding capacity of ^125I-labeled peptide across HNSCC cell lines (carcinoma cell lines): 4.1-12.1%

^177Lu-DOTA-SFLAP3K: ^177Lu-DOTA-labeled SFLAP3K ({DOTA}-GRCTGRGDLGRLKCYPD; disulfide 3-14; also: DOTA loaded with 177Lu)
cellular uptake of ^177Lu-DOTA-labeled peptide compared with ^177Lu-DOTA-SFLAP3 (Capan-2 cells; 10 and 60 min): did not result in an increased cellular uptake
efflux (released into the culture medium) (Capan-2 cells; during 4 hours following 60 min exposure): 50%

^177Lu-DOTA-SFPF10: ^177Lu-DOTA-labeled SFPF-10 ({DOTA}-GRCTFRGDKMQLCYPD; disulfide 3-13 (inferred); also: DOTA loaded with 177Lu)
binding of ^177Lu-DOTA-labeled peptide (kinetics) (HNO97 cells [3]): up to 23%

biotinylated PEG(12)-SFITGv6: biotinylated PEG(12)-SFITGv6 peptide for histochemical staining (GRCTFRGDLMQLCYPD; disulfide 3-13; also: biotinylated PEG(12) label, site not given here)
histochemical peptide staining result ([1]; listed as biotin-labeled SFITGv6): strong and homogenous tumor cell-specific binding
histochemical peptide staining result ([1]; listed as biotinylated SFITGv6): specific, strong and homogeneous binding

B1: ^177Lu-DOTA-SFLAP3 (peptide)
peptide: {DOTA}-GRCTGRGDLGRLCYPD
modifications: disulfide 3-13; also: DOTA loaded with 177Lu (or peptide 125I-labelled in competition assay)
notes: DOTA conjugate of SFLAP3
IC50 [4]: 6.2 nM

B2: ^177Lu-DOTA-SFLAP3K (peptide)
peptide: {DOTA}-GRCTGRGDLGRLKCYPD
modifications: disulfide 3-14; also: DOTA loaded with 177Lu (or peptide 125I-labelled in competition assay)
notes: DOTA conjugate of SFLAP3K
IC50 [4]: 2.1 nM

B3: ^177Lu-DOTA-SFLAP3-trimer (Formula (XXVII)) (peptide)
chain: {DOTA}-GSGSKGSGSKGSGSK
peptide: GRCTGRGDLGRLCYPD
modifications: disulfide II:3-II:13; also: 177Lu chelated by DOTA, three SFLAP3 units attached by oxime ligation, aminooxy-modified, sites not given here, only one SFLAP3 unit listed as chain
notes: Branched trimer; the exact connectivity stands only in the drawing of formula (XXVII), which is not readable here; also called trimerized peptide
IC50 [4]: 0.76 nM
